Assay results taken from patent US5225528A, “Cyclic hexapeptide oxytocin antagonists” (priority 1990, dated 1993).
Read-outs that look alike come from different tables or passages of the source. Numbered stars: 1 amine (or outer) side, 2 acyl side, 3 side chain; on linkers, the order of the positions; unused ones are H or OH. Square brackets hold non-standard residues; d marks the D form. Peptide text beside a SMILES is read from it. * marks the point of attachment. dPip(4-aza,4-Cbz) = O=C(O)[C@H]1CN(C(=O)OCc2ccccc2)CCN1; X2 = O=C(OCc1ccccc1)N1CCN([*:1])[C@H](C(=O)[*:2])C1; X5 = CC(C)(C)OC(=O)CN1CCN([*:1])[C@H](C(=O)[*:2])C1; d2Nal = N[C@H](Cc1ccc2ccccc2c1)C(=O)O; dNMehPhe = CN[C@H](CCc1ccccc1)C(=O)O; dNMeY = CN[C@H](Cc1ccc(O)cc1)C(=O)O; NMeI = CC[C@H](C)[C@H](NC)C(=O)O; Pip(4-aza) = O=C(O)[C@@H]1CNCCN1; dNMeF = CN[C@H](Cc1ccccc1)C(=O)O; Chg = N[C@H](C(=O)O)C1CCCCC1; Pip = O=C(O)[C@@H]1CCCCN1; dPip = O=C(O)[C@H]1CCCCN1; ClZ = O=C(OCc1ccccc1Cl)*; Boc = CC(C)(C)OC(=O)*; Bn = c1ccc(C*)cc1

Tests used:
uterine OT receptors = molecular target: T1, uterine OT receptors (Rattus norvegicus, UniProt P70536); test: [^3 H]OT binding to uterine OT receptors, crude membrane preparation of uteri from DES-treated rats; conditions: for IC50: rat uterus membranes, 1 nM [^3 H]OT, read-out: Receptor Binding Results IC50 (nM) [^3 H]OT; for inhibition at 1 µM / inhibition at 0.1 µM: 1 h, read-out: [^3 H]OT: percent inhibition of radioligand at the given concentration; for inhibition at 0.1 µM: @ 100 (nM)
T1 construct: from tissue; host or cells: uterus of DES-treated rats, crude membranes
T1 sequence (P70536 1-388): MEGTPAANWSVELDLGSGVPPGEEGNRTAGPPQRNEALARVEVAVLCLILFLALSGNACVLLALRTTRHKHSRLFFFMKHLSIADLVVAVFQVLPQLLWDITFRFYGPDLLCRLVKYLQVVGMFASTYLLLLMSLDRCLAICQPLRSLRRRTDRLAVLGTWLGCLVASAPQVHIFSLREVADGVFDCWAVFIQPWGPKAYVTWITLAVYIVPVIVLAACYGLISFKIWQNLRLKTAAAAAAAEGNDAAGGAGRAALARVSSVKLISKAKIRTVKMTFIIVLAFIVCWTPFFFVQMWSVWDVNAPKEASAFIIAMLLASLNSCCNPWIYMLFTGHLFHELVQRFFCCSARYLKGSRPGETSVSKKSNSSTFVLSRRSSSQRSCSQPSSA
Description: Competition studies were conducted at equilibrium (60 minutes; 22° C.) using 1 nM [^3 H]OT in the following assay buffer: 50 mM Tris-HCl, 5 mM MgCl2, and 0.1% BSA, pH 7.4.

AVP-V2 sites = molecular target: T2, AVP-V2 sites (Rattus norvegicus, UniProt Q00788); test: [^3 H]AVP binding to crude membrane preparation of male rat kidney medulla (AVP-V2 sites)
T2 construct: male rat liver (AVP-V1 sites) or kidney medulla (AVP-V2 sites); from tissue; host or cells: male rat kidney medulla, crude membranes
T2 sequence (Q00788 whole entry): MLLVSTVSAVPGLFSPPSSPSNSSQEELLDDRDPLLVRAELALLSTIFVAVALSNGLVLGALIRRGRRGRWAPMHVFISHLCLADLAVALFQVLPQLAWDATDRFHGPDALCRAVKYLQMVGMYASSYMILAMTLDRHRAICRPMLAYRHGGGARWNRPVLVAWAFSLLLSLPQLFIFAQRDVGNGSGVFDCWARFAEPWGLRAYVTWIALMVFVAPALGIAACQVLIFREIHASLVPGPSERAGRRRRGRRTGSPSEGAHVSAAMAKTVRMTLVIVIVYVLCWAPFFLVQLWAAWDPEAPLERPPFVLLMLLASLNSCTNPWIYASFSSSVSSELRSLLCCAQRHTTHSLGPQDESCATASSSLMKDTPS
Description: (§1) Nonspecific binding (5-10% of the total binding) was determined using 10 μM unlabeled AVP, and the binding reaction was terminated by filtration as described above for the [^3 H]OT binding assay.

AVP-V1 sites = molecular target: T3, AVP-V1 sites (Rattus norvegicus, UniProt P30560); test: [^3 H]AVP binding to crude membrane preparation of male rat liver (AVP-V1 sites)
T3 construct: crude membrane preparation of male rat liver (AVP-V1 sites); from tissue; host or cells: male rat liver, crude membranes
T3 sequence (P30560 whole entry): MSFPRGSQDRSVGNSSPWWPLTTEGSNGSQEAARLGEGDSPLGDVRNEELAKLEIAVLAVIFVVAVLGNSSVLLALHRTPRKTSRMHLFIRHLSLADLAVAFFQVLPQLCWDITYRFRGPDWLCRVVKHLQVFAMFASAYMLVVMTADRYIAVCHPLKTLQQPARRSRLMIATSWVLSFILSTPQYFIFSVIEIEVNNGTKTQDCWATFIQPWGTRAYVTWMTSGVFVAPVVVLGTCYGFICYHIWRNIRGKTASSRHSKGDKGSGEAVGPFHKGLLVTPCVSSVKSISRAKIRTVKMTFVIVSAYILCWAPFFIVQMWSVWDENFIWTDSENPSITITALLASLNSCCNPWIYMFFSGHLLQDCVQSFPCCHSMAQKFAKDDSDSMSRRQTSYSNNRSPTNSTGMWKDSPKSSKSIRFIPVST
Description: as §1

[1] = rat kidney medulla membranes, 2 nM [^3 H]AVP, read-out: Receptor Binding Results IC50 (nM) [^3 H]-AVP-V2
[2] = Receptor Binding Results IC50 (nM) [^3 H]-AVP-V1
[3] = read-out: Receptor Binding Results IC50 (nM) [^3 H]-AVP-V2
[4] = read-out: Receptor Binding Results IC50 (nM) [^3 H]-AVP-V1

Row | Molecule | IC50 (uterine OT receptors) | IC50 (AVP-V2 sites; [1]) | IC50 (AVP-V1 sites; [2]) | other results
1 | O=C1N[C@@H](C2CCCCC2)C(=O)N2CCC[C@@H]2C(=O)N2CCC[C@H]2C(=O)N[C@H](Cc2ccccc2)C(=O)N2CCC[C@H]2C(=O)N[C@@H]1Cc1ccccc1 [Example 67, c-[D-Phenylalanyl-L-cyclohexylglycyl-D-prolyl-L-prolyl-D-phenylalanyl-L-prolyl]] (cyclo([dF]P[dF][Chg][dP]P)) | 10000 nM | > 10000 nM | > 10000 nM | 
2 | CC[C@H](C)[C@@H]1NC(=O)[C@@H](Cc2ccccc2)NC(=O)[C@@H]2CCCN2C(=O)[C@@H](CCCCNC(=O)OCc2ccccc2Cl)NC(=O)[C@@H]2CCCCN2C(=O)[C@H]2CCCCN2C1=O [Example 26, Cyclo[D-phenylalanyl-L-isoleucyl-D-pipecolyl-L-pipecolyl-D-(2-chlorocarbobenzyloxy)-lysyl-L-prolyl]] (cyclo(I[dPip][Pip][dK](ClZ)P[dF])) |  | 10000 nM | 10000 nM | inhibition at 1 µM (uterine OT receptors; @ 1,000 (nM)): 86%
3 | CC[C@H](C)[C@H]1C(=O)N2CCCC[C@@H]2C(=O)N2CCCC[C@H]2C(=O)N(C)[C@H](Cc2ccccc2)C(=O)N2CCC[C@H]2C(=O)N(C)[C@H](CCc2ccccc2)C(=O)N1C [Example 166] (cyclo([NMeI][dPip][Pip][dNMeF]P[dNMehPhe])) | 23000 nM |  |  | IC50 (AVP-V2 sites; [3]): > 3000 nM; IC50 (AVP-V1 sites; [4]): > 3000 nM
4 | CN1C(=O)[C@@H]2CCCCN2C(=O)[C@H]2CCCCN2C(=O)[C@H](Cc2ccccc2)NC(=O)[C@@H](Cc2ccccc2)NC(=O)[C@@H]2CCCN2C(=O)[C@H]1Cc1ccccc1 [Example 136, c-[D-Phenylalanyl-L-phenylalanyl-D-pipecolyl-L-pipecolyl-D-(N-methyl)phenylalanyl-L-prolyl]] (cyclo(F[dPip][Pip][dNMeF]P[dF])) | 410 nM |  | > 10000 nM | IC50 (AVP-V2 sites; [3]): 8000 nM
5 | CC[C@H](C)[C@@H]1NC(=O)[C@@H](Cc2c[nH]c3ccccc23)NC(=O)[C@@H]2CCCN2C(=O)[C@@H](Cc2ccc(OCc3ccccc3)cc2)N(C)C(=O)[C@@H]2CCCCN2C(=O)[C@H]2CCCCN2C1=O [Example 33, Cyclo[D-tryptophanyl-L-isoleucyl-D-pipecolyl-L-pipecolyl-D-(N^α methyl-O-benzyl)tyrosyl-L-prolyl]] (cyclo(I[dPip][Pip][dNMeY](Bn)P[dW])) | 100 nM | > 10000 nM | > 10000 nM | 
6 | CC[C@H](C)[C@@H]1NC(=O)[C@@H](Cc2c[nH]c3ccccc23)NC(=O)[C@@H]2CCCN2C(=O)[C@@H](Cc2ccccc2)N(C)C(=O)[C@@H]2CN(CC(=O)OC(C)(C)C)CCN2C(=O)[C@H]2CCCCN2C1=O [Example 180, C-[D-Tryptophanyl-L-isoleucinyl-D-pipecolyl-L-piperazin-2-yl (4-t-butylacetyl)-D-(N^α -Me)phenylalanyl-L-prolyl]] (cyclo([dW]I[dPip][X5][dNMeF]P)) | 150 nM |  |  | inhibition at 10 µM (AVP-V2 sites; 0.5 h, @ 10,000 (nM), read-out: [^3 H]-AVP-V2: percent inhibition of radioligand at the given concentration): 79%; [^3 H]-AVP-V1: percent inhibition of radioligand at the given concentration (AVP-V1 sites; @ 10,000 (nM)): 44%
7 | CC[C@H](C)[C@@H]1NC(=O)[C@@H](Cc2ccccc2)NC(=O)[C@@H]2CCCN2C(=O)[C@@H](Cc2ccccc2)N(C)C(=O)[C@@H]2CN(C(=O)OCc3ccccc3)CCN2C(=O)[C@H]2CN(C(=O)OCc3ccccc3)CCN2C1=O [Example 86, c-[D-Phenylalanyl-L-isoleucinyl-D-piperazin-2-yl(4-Cbz)-L-piperazin-2-yl(4-Cbz)-D-(N^α -methyl)phenylalanyl-L-prolyl]] (cyclo(I[dPip(4-aza,4-Cbz)][X2][dNMeF]P[dF])) |  | > 10000 nM | > 10000 nM | inhibition at 1 µM (uterine OT receptors; @ 1,000 (nM)): 58%
8 | CC[C@H](C)[C@@H]1NC(=O)[C@@H](Cc2ccc3ccccc3c2)NC(=O)[C@@H]2CCCN2C(=O)[C@@H](Cc2ccccc2)N(C)C(=O)[C@H](CCCCN)NC(=O)[C@H]2CCCCN2C1=O [Example 141, C-[D-2-Napthylalanyl-L-isoleucyl-D-pipecolyl-L-lysyl-D-(N-methyl)phenylalanyl-L-prolyl]] (cyclo([d2Nal]I[dPip]K[dNMeF]P)) | 45 nM |  |  | [^3 H]-AVP-V2: percent inhibition of radioligand at the given concentration (AVP-V2 sites; @ 1,000 (nM)): 78%; [^3 H]-AVP-V1: percent inhibition of radioligand at the given concentration (AVP-V1 sites): 48%
9 | CC[C@H](C)[C@@H]1NC(=O)[C@@H](Cc2c[nH]c3ccccc23)NC(=O)[C@@H]2CCCN2C(=O)[C@@H](Cc2c[nH]c3ccccc23)NC(=O)[C@@H]2CN(CC(=O)OC(C)(C)C)CCN2C(=O)[C@H]2CCCCN2C1=O [Example 162, c-[D-Tryptophanyl-L-isoleucinyl-D-pipecolyl-L-piperazin-2-yl(4-t-butylacetyl)-D-tryptophanyl-L-prolyl]] (cyclo([dW]I[dPip][X5][dW]P)) |  | 10000 nM | > 10000 nM | inhibition at 0.1 µM (uterine OT receptors): 54%
10 | CC[C@H](C)[C@@H]1NC(=O)[C@@H](Cc2ccccc2)NC(=O)[C@@H]2CCCN2C(=O)C(Cc2cccnc2)NC(=O)[C@@H]2CCCCN2C(=O)[C@H]2CCCCN2C1=O (single isomer, unassigned) [Example 10 (isomer 1), Cyclo[D-Phe-L-Ile-D-Pip-L-Pip-D,L-3-PyrAla-L-Pro]] | 1000 nM | > 10000 nM | > 10000 nM | 
11 | CC[C@H](C)[C@@H]1NC(=O)[C@@H](Cc2ccccc2)NC(=O)[C@@H]2CCCN2C(=O)[C@@H](Cc2ccc(O)cc2)N(C)C(=O)[C@@H]2CCCCN2C(=O)[C@H]2CCCCN2C1=O [Example 46, Cyclo[D-phenylalanyl-L-isoleucyl-D-pipecolyl-L-pipecolyl-D-(N^α Methyl)tyrosyl-L-prolyl]] (cyclo(I[dPip][Pip][dNMeY]P[dF])) |  |  | 10000 nM | inhibition at 0.1 µM (uterine OT receptors): 60%; IC50 (AVP-V2 sites; Receptor Binding Results IC50 (nM) [^3 H]-AVP-V2): > 1000 nM
12 | CC[C@H](C)[C@@H]1NC(=O)[C@@H](Cc2ccc3ccccc3c2)NC(=O)[C@@H]2CCCN2C(=O)[C@@H](Cc2c[nH]cn2)NC(=O)[C@@H]2CNCCN2C(=O)[C@H]2CCCCN2C1=O [Example 159, c-[D-2-Naphthylalanyl-L-isoleucyl-D-pipecolyl-L-piperazin-2-yl-D-histidyl-L-prolyl]] (cyclo(I[dPip][Pip(4-aza)][dH]P[d2Nal])) | 1.8 nM |  |  | IC50 (AVP-V2 sites; [3]): 690 nM; IC50 (AVP-V1 sites; [4]): 4650 nM
13 | CC[C@H](C)[C@@H]1NC(=O)[C@@H](Cc2ccccc2)NC(=O)[C@@H]2CCCN2C(=O)[C@@H](Cc2ccccc2)NC(=O)[C@H](CC(N)=O)NC(=O)[C@@H](CCC(N)=O)NC1=O [Example 102] (cyclo([dF]I[dQ]N[dF]P)) | > 10000 nM | > 10000 nM | > 10000 nM | 
14 | CC[C@H](C)[C@H]1C(=O)N2CCCC[C@@H]2C(=O)N2CCCC[C@H]2C(=O)N(C)[C@H](Cc2ccccc2)C(=O)N2CCC[C@H]2C(=O)N(C)[C@H](Cc2ccccc2)C(=O)N1C [Example 15, C-[D-(N^α methyl)phenylalanyl-L-(N^α methyl)isoleucyl-D-pipecolyl-L-pipecolyl-D-(N^α methyl)phenylalanyl-L-prolyl]] (cyclo([NMeI][dPip][Pip][dNMeF]P[dNMeF])) | > 10000 nM | > 10000 nM | > 10000 nM | 
15 | c-[D-2-Trytophanyl-L-isoleucinyl-D-pipecolyl-L-piperazin-2-yl-(4-Cbz)-D-histidinyl(BOM)-L-prolyl] [Example 175] |  |  |  | [^3 H]OT: percent inhibition of radioligand at the given concentration (uterine OT receptors; @ 1,000 (nM)): 79%; [^3 H]-AVP-V2: percent inhibition of radioligand at the given concentration (AVP-V2 sites; @ 10,000 (nM)): 81%; [^3 H]-AVP-V1: percent inhibition of radioligand at the given concentration (AVP-V1 sites; @ 10,000 (nM)): 54%
16 | CC[C@H](C)[C@@H]1NC(=O)[C@@H](Cc2ccc(O)cc2)NC(=O)[C@@H]2CCCN2C(=O)[C@@H](Cc2ccccc2)N(C)C(=O)[C@H](CCCCNC(=O)OC(C)(C)C)NC(=O)[C@H]2CCCCN2C1=O [Example 148, C-[D-Tyrosyl-L-isoleucyl-D-pipecolyl-L-(N-t-butyloxycarbonyl)lysyl-D-(N-methyl)phenylalanyl)-L-prolyl] (cyclo(I[dPip]K(Boc)[dNMeF]P[dY])) |  | > 10000 nM | > 10000 nM | inhibition at 1 µM (uterine OT receptors; @ 1,000 (nM)): 50%
17 | CC[C@H](C)[C@@H]1NC(=O)[C@@H](Cc2ccc3ccccc3c2)NC(=O)[C@@H]2CCCN2C(=O)[C@@H](Cc2ccccc2)N(C)C(=O)[C@@H]2CNCCN2C(=O)[C@H]2CCCCN2C1=O [Example 171, c-[D-2-Naphthylalanyl-L-isoleucinyl-D-pipecolyl-L-piperazin-2-yl-D-(N^α -methyl)phenylalanyl-L-prolyl]] (cyclo(I[dPip][Pip(4-aza)][dNMeF]P[d2Nal])) | 3.9 nM |  |  | IC50 (AVP-V2 sites; [3]): 335 nM; IC50 (AVP-V1 sites; [4]): 15000 nM
